Reference: patent US20180370912A1, “COMPOUNDS AND METHODS FOR TREATING DISEASES MEDIATED BY PROTEIN DISULFIDE ISOMERASE” (Beth Israel Deaconess Medical Center, Inc., priority 2017, published 2018)

Tests used:
ERp5 = biological target: T1, ERp5 (Homo sapiens, UniProt Q15084); test: Insulin reductase assay, thiol isomerase selectivity; assay type: biochemical; conditions: 10-fold IC50, FIG. 2
T1 construct: recombinant His-tagged full-length ERp5, ERp72 and PDI domain fragments; His; made in house; host or cells: Escherichia coli Origami B (DE3), pET-15b
T1 sequence (Q15084 20-440): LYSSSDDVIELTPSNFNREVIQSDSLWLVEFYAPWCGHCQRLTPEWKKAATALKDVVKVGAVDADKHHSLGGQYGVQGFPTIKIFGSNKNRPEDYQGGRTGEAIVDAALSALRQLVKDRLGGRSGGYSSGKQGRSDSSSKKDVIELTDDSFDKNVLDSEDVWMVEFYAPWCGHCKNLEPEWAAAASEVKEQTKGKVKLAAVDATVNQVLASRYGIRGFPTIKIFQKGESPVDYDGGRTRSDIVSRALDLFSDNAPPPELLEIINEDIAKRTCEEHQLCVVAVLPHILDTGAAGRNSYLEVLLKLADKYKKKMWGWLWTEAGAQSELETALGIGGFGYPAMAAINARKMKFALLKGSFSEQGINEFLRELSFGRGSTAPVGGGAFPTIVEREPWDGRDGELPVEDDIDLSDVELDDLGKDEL
Experimental: (§1) The thiol isomerase-catalyzed reduction of insulin was assayed by measuring the increase in turbidity as detected at an optical density (OD) of 650 nm using a Spectramax M3 (Molecular Devices, Sunnyvale, Calif.). The validation assay consisted of 175 nM of PDI in a solution containing 100 mM potassium phosphate (pH 7.4) containing 0.2 mM bovine insulin, 2 mM EDTA, and 0.3 mM DTT (all purchased from Sigma Aldrich, St. Louis, Mo.), inhibitors were used at the concentrations indicated. The reaction was performed at 25° C. for one hour and thirty minutes. For assays of thiol isomerase selectivity, 11 nM PDI, ERp57 or Thioredoxin, or 33 nM ERpS were assayed in similar buffer conditions as described above and inhibitors were used at the indicated concentration. The reaction was performed at 37° C. for forty-five minutes. For assays of isolated domains studies, 400 nM protein was used, except for a, a′ and ab, in which 800 nM protein was used. The assay was performed in similar buffer conditions as described above. Bepristat 2a and N-(2,4-Dimethoxyphenyl)-N-(1-oxo-2-propyn-1-yl)-2-(2-thienyl)glycyl-glycine ethyl ester (PACMA-31) were used at a final concentration of 15 μM in these studies.

thioredoxin = biological target: T2, thioredoxin (Homo sapiens, UniProt P10599); test: as above; assay type: biochemical; conditions: 10-fold IC50, FIG. 2
T2 sequence (P10599 1-105): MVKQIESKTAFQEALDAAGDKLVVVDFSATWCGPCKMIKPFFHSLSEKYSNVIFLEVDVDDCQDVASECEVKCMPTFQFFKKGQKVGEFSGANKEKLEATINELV
Experimental: as §1

abb′x fragment of PDI = biological target: T3, abb′x fragment of PDI (Homo sapiens, UniProt P07237); test: Proteolysis assay with proteinase K
T3 construct: 1.25 μg of the abb′x fragment; His; made in house; host or cells: Escherichia coli Origami B (DE3), pET-15b
T3 sequence (P07237 18-368 limits assumed): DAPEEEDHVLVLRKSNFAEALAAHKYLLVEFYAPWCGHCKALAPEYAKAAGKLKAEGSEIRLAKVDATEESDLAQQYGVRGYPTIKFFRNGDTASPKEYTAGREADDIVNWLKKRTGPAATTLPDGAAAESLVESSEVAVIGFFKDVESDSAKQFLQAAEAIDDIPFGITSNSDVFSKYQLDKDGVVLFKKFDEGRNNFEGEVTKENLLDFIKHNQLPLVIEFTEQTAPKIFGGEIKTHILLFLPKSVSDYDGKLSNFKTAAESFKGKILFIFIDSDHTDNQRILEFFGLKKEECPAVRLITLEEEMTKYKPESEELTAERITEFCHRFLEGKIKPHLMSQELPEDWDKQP
Experimental: Proteinase K (2 μg/mL) was incubated with 1.25 μg of the abb′x fragment in 50 mM Tris-HCl containing 5 mM CaCl2 and 10 mM DTT. Reactions were aborted with the addition of 0.5 mM phenylmethanesulfonyl fluoride (PMSF). Subsequently, samples were subjected to Laemmli Sample buffer with 5% β-mercaptoethanol and heated at 95° C. for 10 minutes. Each sample was loaded on a 12% SDS-PAGE gel, followed by silver staining using the Pierce Silver Stain Kit (Thermo Scientific).

full-length PDI = biological target: T4, full-length PDI (Homo sapiens, UniProt P07237); test: Small-angle X-ray scattering (SAXS)
T4 construct: FLAG; made in house; host or cells: Escherichia coli Origami B (DE3), pET-15b
T4 sequence (P07237 18-508): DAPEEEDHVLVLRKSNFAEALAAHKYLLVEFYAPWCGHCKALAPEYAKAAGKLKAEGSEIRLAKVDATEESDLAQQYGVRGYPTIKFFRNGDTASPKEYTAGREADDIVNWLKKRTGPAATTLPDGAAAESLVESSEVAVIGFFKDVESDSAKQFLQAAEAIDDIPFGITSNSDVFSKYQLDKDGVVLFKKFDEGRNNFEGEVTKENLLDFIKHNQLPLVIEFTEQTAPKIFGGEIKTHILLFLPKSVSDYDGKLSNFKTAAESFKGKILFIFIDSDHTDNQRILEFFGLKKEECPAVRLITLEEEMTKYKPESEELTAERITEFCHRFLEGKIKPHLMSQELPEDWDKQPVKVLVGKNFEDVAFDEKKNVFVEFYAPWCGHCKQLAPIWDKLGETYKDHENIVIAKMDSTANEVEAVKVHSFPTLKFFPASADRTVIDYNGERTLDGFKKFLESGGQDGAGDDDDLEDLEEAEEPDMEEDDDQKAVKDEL
Experimental: Further purification of full-length PDI was achieved by gel filtration. PDI (1.5, 3.0 and 4.5 mg/mL) was dialyzed against 20 mM Tris, 150 mM NaCl, 5% glycerol (pH: 8.0) containing 0.5 mM bepristat 1b or 2b or DMSO control at 4° C. overnight. Evaluation by SAXS was performed on the SIBYLS beamline in the Advanced Light Source using a high throughput data collection method.

Structure (SMILES)	inhibition of reductase activity of ERp5 (ERp5)	inhibition of reductase activity of thioredoxin (thioredoxin)	proteinase K activity (cleavage of ERp5) (abb′x fragment of PDI; control, not shown)	cleavage of abb′x by proteinase K (abb′x fragment of PDI; presence versus absence of compound, FIG. 5b)	PDI conformation by SAXS (full-length PDI)
C#CC(=O)N(c1ccc(OC)cc1OC)C(C(=O)NCC(=O)OCC)c1cccs1 (centres unmarked) [PACMA-31, N-(2,4-Dimethoxyphenyl)-N-(1-oxo-2-propyn-1-yl)-2-(2-thienyl)glycyl-glycine ethyl ester, reference compound]	demonstrated inhibitory activity	demonstrated inhibitory activity			
CCOC(=O)c1c(CNCCN(CC)CC)n(-c2ccccc2)c2cc(Br)c(O)cc12 [bepristat 2a]			did not interfere with proteinase K activity	occurred more rapidly	more compact conformation
